The assay deals with T1, NLRP3 inflammasome (Homo sapiens, UniProt Q96P20).
T1 construct: endogenous in cells; host or cells: THP-1 monocytic cells
T1 sequence (Q96P20 whole entry): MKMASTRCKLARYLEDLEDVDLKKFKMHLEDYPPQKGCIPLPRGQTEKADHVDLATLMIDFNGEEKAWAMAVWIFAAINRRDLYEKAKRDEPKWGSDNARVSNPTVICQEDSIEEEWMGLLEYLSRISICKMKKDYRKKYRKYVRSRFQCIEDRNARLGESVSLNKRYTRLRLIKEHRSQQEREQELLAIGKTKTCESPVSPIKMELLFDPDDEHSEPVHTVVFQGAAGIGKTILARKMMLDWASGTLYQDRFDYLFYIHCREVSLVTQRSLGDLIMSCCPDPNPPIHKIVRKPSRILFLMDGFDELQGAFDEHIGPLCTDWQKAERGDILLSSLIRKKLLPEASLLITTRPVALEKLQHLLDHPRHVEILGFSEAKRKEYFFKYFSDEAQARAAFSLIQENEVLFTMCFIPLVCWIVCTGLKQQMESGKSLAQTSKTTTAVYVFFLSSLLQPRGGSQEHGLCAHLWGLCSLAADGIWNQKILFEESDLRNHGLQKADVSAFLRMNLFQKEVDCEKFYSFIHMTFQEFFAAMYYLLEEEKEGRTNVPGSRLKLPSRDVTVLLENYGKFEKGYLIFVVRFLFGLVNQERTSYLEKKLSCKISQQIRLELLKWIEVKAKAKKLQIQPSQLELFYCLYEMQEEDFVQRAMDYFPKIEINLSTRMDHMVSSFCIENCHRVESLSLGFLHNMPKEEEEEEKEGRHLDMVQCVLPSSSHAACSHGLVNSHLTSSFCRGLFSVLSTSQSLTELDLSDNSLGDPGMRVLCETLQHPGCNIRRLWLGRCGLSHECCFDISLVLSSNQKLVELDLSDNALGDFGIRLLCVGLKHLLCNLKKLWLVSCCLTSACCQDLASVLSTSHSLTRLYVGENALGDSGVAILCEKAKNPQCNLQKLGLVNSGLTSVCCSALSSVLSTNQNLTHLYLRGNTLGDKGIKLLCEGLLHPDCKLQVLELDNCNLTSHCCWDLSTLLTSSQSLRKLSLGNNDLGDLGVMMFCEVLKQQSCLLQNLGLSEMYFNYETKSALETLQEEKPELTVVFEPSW
Kind of assay: IL-1β secretion assay (NLRP3 IC50) in LPS-primed, nigericin-activated THP-1 cells, HTRF. It counts as cell-based. To be noted: monocytic THP-1 cells; LPS 10 ng/mL 3 h priming, then compound + nigericin 10 μM 2 h; relative IC50, 10 concentrations, geometric mean. As to the method:
Monocytic THP-1 cells were maintained in RPMI 1640 media (Gibco 21875)+10% FBS, (Gibco 10500)+1% penicillin/streptomycin (Gibco 15140-122). Cells were then plated at 40,000 cells per well in 384-well cell culture plates (CoRNning 3542) and maintained with RPMI1640 (Gibco 11835)+5% FBS (Gibco 10500). Activation of the NLRP3 inflammasome requires both an NF-kB-dependent priming step and the addition of a NLRP3 activator. The priming step was induced by LPS (10 ng/mL, InvivoGen ref tlrl-3pelps) for 3 h at 37° C., then compound, in a 1:3 serial dilution series in DMSO (final concentration DMSO 0.1%), and the activator nigericin (Sigma Aldrich, ref: SML1779) 10 μM (final concentration) were added to the cells and co-incubated for 2 hours. 16 μL supernatant was removed, and IL-1β levels were monitored using an HTRF assay (Human IL1b Kits HTRF Cisbio ref: 62HILBPEH) according to manufacturers' instructions.
Data were expressed as percentage of inhibition (I %) as compared to a maximum signal control containing no small molecule (I %=0%) according to the formula: 1%=(1−((Sample−Min))/((Max−Min)))×100, where: • Sample: Signal obtained in the presence of each compound tested, • Max: Maximum signal in the absence of compound added, • Min: Minimum or background signal obtained in the absence of activation signal.
Relative IC50 (IC50 rel) were obtained from a dose response curve with 10 concentrations. Final IC50 rels are expressed as the geometric mean.
Relative IC50 values were estimated with Biost@t-SPEED v2.4 internal software based on SAS system using the 4-parameter logistic model according to Ratkovsky and Reedy (D. A. Ratkovsky, T. J. Reedy, Choosing near-linear parameters in the four parameters logistic model radioligands and related assays. Biometrics, 42 (1986), 575-582): Y=A+C/((1+exp(−B*(log(X)−M)))), where: • A: Lower asymptote (BOTTOM), • A+C: Upper asymptote (TOP), • M: the logarithm of the concentration estimated at the inflexion point (the logarithm of the relative IC50), • B: Slope at the inflexion point of the curve.
For orientation: Time-resolved FRET reads energy transfer from a long-lived donor to a nearby acceptor.
Broadly, the IC50 is the concentration needed to halve the response being measured. For the compound `Cc1cc(C)c(-c2ccc(N3CCC[C@H]4CCN(C)C[C@@H]43)nn2)c(O)c1` [Example 520, 2-[6-[(4aS,8aR)-7-methyl-2,3,4,4a,5,6,8,8a-octahydro-1,7-naphthyridin-1-yl]pyridazin-3-yl]-3,5-dimethyl-phenol], the 50% inhibitory concentration (IC50) is 55 nM. As for `Cc1cc(C)c(-c2ccc(N3CCC(C#N)CC3)nn2)c(O)c1` [Example 2, 1-[6-(2-hydroxy-4,6-dimethyl-phenyl)pyridazin-3-yl]piperidine-4-carbonitrile], the figure is 1960 nM; as for `OC[C@@H]1CCN1c1ccc(-c2c(O)cc(Cl)cc2Cl)nn1` [Example 117, 3,5-dichloro-2-[6-[(2S)-2-(hydroxymethyl)azetidin-1-yl]pyridazin-3-yl]phenol], 869 nM.

For `CC(=O)N1C[C@H]2OCCN(c3ccc(-c4c(C)cc(C(F)(F)F)cc4O)nn3)[C@H]2C1` (single isomer, unassigned) [Example 352], the 50% inhibitory concentration (IC50) is 375 nM. As for `Cc1cc(C(F)(F)F)cc(O)c1-c1ccc(N2CCO[C@@H]3CN(C)C[C@H]32)nn1` (racemic) [Example 289, 3-methyl-2-[6-[rac-(4aR,7aR)-6-methyl-2,3,4a,5,7,7a-hexahydropyrrolo[3,4-b][1,4]oxazin-4-yl]pyridazin-3-yl]-5-(trifluoromethyl)phenol], the figure is 140 nM; as for `Cc1cc(Cl)cc(O)c1-c1ccc(N2CC[C@@H]3CCN(C)C[C@@H]32)nn1` (single isomer, unassigned) [Example 502], 347 nM; as for `Cc1cc(C)c(-c2ccc(N3CCO[C@@H]4CCN(CC(F)(F)F)C[C@@H]43)nn2)c(O)c1` [Example 355, 2-[6-[(4aS,8aR)-6-(2,2,2-trifluoroethyl)-3,4a,5,7,8,8a-hexahydro-2H-pyrido[4,3-b][1,4]oxazin-4-yl]pyridazin-3-yl]-3,5-dimethyl-phenol], 1170 nM. As for `CC(=O)N1CC[C@H]2CCN(c3ccc(-c4c(C)cc(C)cc4O)nn3)[C@H]2C1` (single isomer, unassigned) [Example 413], the figure is 500 nM. On to `Cc1cc(N2CCO[C@@H]3CCN(C)C[C@@H]32)nnc1-c1ccc(F)cc1O` [Example 480, 2-[6-[(4aS,8aR)-6-methyl-3,4a,5,7,8,8a-hexahydro-2H-pyrido[4,3-b][1,4]oxazin-4-yl]-4-methyl-pyridazin-3-yl]-5-fluoro-phenol], for which the IC50 was 6 nM. As for `Cc1cc(C(F)(F)F)cc(O)c1-c1ccc(N2CCO[C@H]3CCOC[C@@H]32)nn1` (racemic) [Example 448, 3-methyl-2-[6-[rac-(4aS,8aS)-3,4a,5,7,8,8a-hexahydro-2H-pyrano[4,3-b][1,4]oxazin-4-yl]pyridazin-3-yl]-5-(trifluoromethyl)phenol], the figure is 370 nM; as for `CC(=O)N1CC[C@H]2CCN(c3cc(C)c(-c4ccc(C(F)(F)F)cc4O)nn3)[C@H]2C1` [Example 514, 1-[(3aR,7aR)-1-[6-[2-hydroxy-4-(trifluoromethyl)phenyl]-5-methyl-pyridazin-3-yl]-3,3a,4,5,7,7a-hexahydro-2H-pyrrolo[2,3-c]pyridin-6-yl]ethanone], 196 nM; as for `OC[C@@H]1CN(c2cc(C(F)F)c(-c3ccc4c(c3O)CCC4)nn2)CCO1` [Example 345, 5-[4-(difluoromethyl)-6-[(2S)-2-(hydroxymethyl)morpholin-4-yl]pyridazin-3-yl]indan-4-ol], 125 nM. As for `Cc1cc(C(F)(F)F)cc(O)c1-c1ccc(N2CCO[C@H]3CNC[C@H]32)nn1` (racemic) [Example 320, 3-methyl-2-[6-[rac-(4aR,7aS)-3,4a,5,6,7,7a-hexahydro-2H-pyrrolo[3,4-b][1,4]oxazin-4-yl]pyridazin-3-yl]-5-(trifluoromethyl)phenol], the 50% inhibitory concentration (IC50) stood at 116 nM.

For `CC(=O)N1CC[C@H]2[C@@H]1CCN2c1ccc(-c2c(C)cc(C(F)(F)F)cc2O)nn1` (racemic) [Example 377, 1-[rac-(3aS,6aS)-1-[6-[2-hydroxy-6-methyl-4-(trifluoromethyl)phenyl]pyridazin-3-yl]-2,3,3a,5,6,6a-hexahydropyrrolo[3,2-b]pyrrol-4-yl]ethanone], the IC50 amounted to 296 nM.

In the case of `Cc1cc(C(F)(F)F)cc(O)c1-c1ccc(N2CCOC(CO)C2=O)nn1` (single isomer, unassigned) [Example 419], the IC50 is 127 nM. As for `Cc1cc(C)c(-c2ccc(N3CC4(CO)CCCC3C4)nn2)c(O)c1` (stereo not drawn) [Example 114, 2-[6-[1-(hydroxymethyl)-6-azabicyclo[3.2.1]octan-6-yl]pyridazin-3-yl]-3,5-dimethyl-phenol], the figure is 958 nM; as for `Cc1cc(C)c(-c2ccc(N3CC[C@H]4CCN(C)C[C@H]43)nn2)c(O)c1` (single isomer, unassigned) [Example 383], 1010 nM; as for `Cc1cc(C)c(-c2ccc(N3CC[C@@H]3CO)nn2)c(O)c1` [Example 118, 2-[6-[(2R)-2-(hydroxymethyl)azetidin-1-yl]pyridazin-3-yl]-3,5-dimethyl-phenol], 758 nM. As for `CCc1cc(Cl)cc(O)c1-c1ccc(N2CC[C@H]3CCN(C)C[C@H]32)nn1` (single isomer, unassigned) [Example 493], the figure is 171 nM. Take `CC(=O)N1CC[C@H]2CCN(c3ccc(-c4c(C)cc(C(F)(F)F)cc4O)nn3)[C@H]2C1` [Example 395, 1-[(3aR,7aR)-1-[6-[2-hydroxy-6-methyl-4-(trifluoromethyl)phenyl]pyridazin-3-yl]-3,3a,4,5,7,7a-hexahydro-2H-pyrrolo[2,3-c]pyridin-6-yl]ethanone]: the IC50 turned out to be 234 nM.

On to `CCc1cc(Cl)cc(O)c1-c1ccc(N2CCO[C@@H]3CCN(C)C[C@@H]32)nn1` [Example 461, 2-[6-[(4aS,8aR)-6-methyl-3,4a,5,7,8,8a-hexahydro-2H-pyrido[4,3-b][1,4]oxazin-4-yl]pyridazin-3-yl]-5-chloro-3-ethyl-phenol], for which the IC50 worked out at 1 nM. The same measure for `CC(=O)N1CC[C@@H]2CCN(c3cc(C(F)F)c(-c4ccc(C(F)(F)F)cc4O)nn3)[C@@H]2C1` (single isomer, unassigned) [Example 510]: 280 nM; for `Cc1cc(C(F)(F)F)cc(O)c1-c1ccc(N2CCC[C@@H](CO)C2=O)nn1` (single isomer, unassigned) [Example 288]: 143 nM. As for `Cc1cc(C)c(-c2ccc(N3C[C@@H](O)CO3)nn2)c(O)c1` [Example 113, (4R)-2-[6-(2-hydroxy-4,6-dimethyl-phenyl)pyridazin-3-yl]isoxazolidin-4-ol], the figure is 857 nM; as for `CCN1CC[C@H]2CCN(c3ccc(-c4c(O)cccc4C(F)(F)F)nn3)[C@H]2C1` (racemic) [Example 458, 2-[6-[rac-(3aS,7aR)-6-ethyl-3,3a,4,5,7,7a-hexahydro-2H-pyrrolo[2,3-c]pyridin-1-yl]pyridazin-3-yl]-3-(trifluoromethyl)phenol], 2 nM. As for `Cc1cc(C)c(-c2ccc(N3CCOc4cnccc43)nn2)c(O)c1` [Example 215, 2-[6-(2,3-dihydropyrido[3,4-b][1,4]oxazin-1-yl)pyridazin-3-yl]-3,5-dimethyl-phenol], the figure is 1460 nM; as for `Cc1cc(C)c(-c2ccc(N3CCO[C@H](C4(N)CC4)C3)nn2)c(O)c1` (single isomer, unassigned) [Example 135], 997 nM.

The values are drawn from patent US20240360151A1 (SANOFI, priority 2023, published 2024).
